In US10758541B2, “Formulations of milciclib and therapeutic combinations of the same for use in the treatment of cancer” (Tiziana Life Sciences PLC, priority 2017, dated 2020):

Legend:
[1] = test system: HepG2.2.15 cells; assay: IC50 values by cell proliferation assay (WST-1); type: cell-based; conditions: Homo sapiens, HepG2.2.15; individual inhibitor, 72 hours, WST-1; read-out: HepG2.2.15 IC50
Excerpt: See Shailubhai, K et al. “Atiprimod is an inhibitor of cancer cell proliferation and angiogenesis.” J Exp Ther Oncol. 2004; 4: 267-279; and Choudhari et al. “Deactivation of Akt and STAT3 signaling promotes apoptosis, inhibits proliferation, and enhances the sensitivity of hepatocellular carcinoma cells to an anticancer agent, atiprimod” Molecular Cancer Therapeutics. 2007; 6: 112-121. References are incorporated herein in their entireties.
HepG2.2.15 cells are derived from the human hepatoblastoma cell line HepG2.
Cells (MHCC97H, MHCC97L, and HepG2.2.15) were cultured for 24 hours in 2% FBS and then were trypsinized, resuspended in 2% FBS and seeded in a rat collagen coated 96-well plate at a density of 10,000 cells/100 μl/well, a day before the experiment and cultured at 37° C. in 5% CO2. The cells were treated the next day with milciclib, sorafenib, regorafenib, sunitinib, and lenvatinib, individually or in combination in DMEM/F12+2% FBS+for 72 hours prior to the addition of WST-1 reagent. About 100 μL media was added to control well. After cells had been cultured for 72 hours with different drug concentrations, cells were washed 3 times with sterile 1× Phosphate buffered saline (PBS). To determine cell proliferation by the colorimetric test, 10 μL of WST-1 reagent (Sigma Aldrich, St Louis, Mo.) was added in 100 μL cell culture media and incubated for 2 hours in 5% CO2 at 37° C. At the end of incubation period, the plate was placed on a plate shaker for 1 minute and was monitored using a spectrophotometer at an optical density of 450 nm with a reference wavelength of 600 nm using Tecan F200 and iControl software. IC50 values were determined using GraphPad Prism (GraphPad Software, La Jolla, Calif.). Each experiment was performed in duplicate and repeated 2 times.

[2] = test system: MHCC97H cells; assay: EMT transwell invasion assay; type: cell-based, human; conditions: agent alone, 10 days, P<0.05
Procedure: (§1) EMT (Epithelial to Mesenchymal Transition) induction employing kit from R&D systems (Cat # CCM017)
(§2) For transwell invasion assay HCC cells were seeded in the top chamber in 6 well transwell plates (Sigma-Aldrich, St. Louis, Mo.) at a density of 100,000 cells/500 μL/well in standard culture media containing 100× StemXVivo® EMT Inducing Media Supplement (R&D systems, Minneapolis, Minn.) and was incubated overnight at 37° C. in humidified CO2 incubator. Next day, EMT inducing media with or without the test articles was added and incubation was continued for 10 days with media changes every 3 days. On the 10th day, the number of cells migrated to the lower chamber was determined using Bio-Rad (Hercules, Calif.) automatic cell counter. Values obtained were expressed as a percentage of invasion and the cell counts of control cells were considered 100%.
(§3) The invasive potential of cancer cells is dependent on losing epithelial characteristics and acquiring a migratory mesenchymal property referred to as Epithelial to Mesenchymal Transition (EMT).

[3] = test system: MHCC97L cells; assay: EMT transwell invasion assay; type: cell-based, human; conditions: agent alone, 10 days, P<0.05
Procedure: as §1, §2, §3

[4] = test system: p27, p21, p57, p53, cyclin D1, cyclin E2, MKI67, c-Myc, CdC6; assay: Quantitative real-time PCR gene expression in orthotopic HCC tumors; type: in vivo; conditions: orthotopic HCC mice
Procedure: Total RNA was extracted using the RNeasy Mini kit according to the manufacturer's instructions (Qiagen, Germantown, Md.). RNA was quantified using Nanodrop Lite (Thermo Scientific, Wilmington, Del.). Complementary DNA (cDNA) synthesis was performed by reverse transcription of total RNA using the High Capacity cDNA Reverse Transcription Kit (Thermo Fisher Scientific, Rockford, Ill.). Real-time quantitative PCR was employed using the LightCycler 480 Instrument II (Roche Diagnostics Corporation, Indianapolis, Ind.) using TaqMan Fast Advanced Master Mix and TaqMan Gene Expression probes for human p27, cyclin E2, cyclin A2, CdC6, MKI67, cyclin D1, p21, p57, c-Myc and p53 (Thermo Fisher Scientific). The expression of target genes was normalized to the housekeeping gene GAPDH in each sample. All samples were run in duplicate and the relative gene expression calculated as 2−ΔCT was expressed as fold increase over control samples.

[5] = test system: pAKT (Ser473), AKT, c-Myc, Cyclin D1, PTEN; assay: Western blot analysis of tumor tissues; type: in vivo, mice; conditions: liver samples, vs vehicle treated group
Procedure: The tumor tissues from a thymic nude mice were weighed and homogenized with RIPA lysis buffer (Sigma-Aldrich, St. Louis, Mo.) and protease inhibitor cocktail (Sigma-Aldrich, St. Louis, Mo.). Tumor lysates were cleared by centrifugation and the protein concentration was determined using Bradford reagent (Sigma-Aldrich, St. Louis, Mo.). Equal amounts of protein (30 μg) were resolved on precast polyacrylamide gels (Thermo Fisher Scientific, Rockford, Ill.) and transferred to nitrocellulose membrane, 0.2 μm pore size (Thermo Fisher Scientific, Rockford, Ill.). The blots were blocked with 5% (w/v) nonfat dry milk for 2 h at room temperature and then probed with primary antibody overnight at 4° C. The primary antibodies were directed against the following proteins: human PTEN, human AKT and phospho-AKT (Ser473), human c-Myc, human CyclinD1 and human β-actin (Cell Signaling Technology, Beverly, Mass.). After three washes, incubation was followed by the reaction with horseradish peroxidase-conjugated secondary antibody for 1 h at room temperature. The immunoreactive bands were visualized using Image Studio 4.0-Western Analysis Ribbon (Li-Cor, Lincoln, Nebr.).

What does the source list for `CNC(=O)c1nn(C)c2c1C(C)(C)Cc1cnc(Nc3ccc(N4CCN(C)CC4)cc3)nc1-2` [MILCICLIB, N,1,4,4-tetramethyl-8-((4-(4-methylpiperazin-1-yl)phenyl)amino)-4,5-dihydro-1H-pyrazolo[4,3-h]quinazoline-3-carboxamide]?
IC50 [1]: 1.16 µM; cell migration (EMT assay) [2]: statistically significant inhibition; cell migration (EMT assay) [3]: statistically significant inhibition; expression of cell proliferation genes such as MKI67, cdc6, c-Myc ([4]; oral administration): downregulated; expression of cyclins such as cyclin E2 and cyclin D1 ([4]; oral administration): downregulated; expression of tumor suppressors such as p27, p21, p53 and p57 ([4]; oral treatment): upregulated; PTEN expression [5]: upregulation; pAKT, c-Myc and cyclin D1 expression [5]: reduction
